Data reported in patent publication US20240209028A1, “CNP COMPOUNDS” (priority 2022, published 2024).
Starred links: 1 amine or outer side, 2 acyl side, 3 side chain; linkers in the order of their positions; H or OH if unused. Positions of bridges follow the written chain, without caps; N, C: chain ends. Residues, ends and D or L forms follow the SMILES beside them. *: point of attachment. C18 diacid = O=C(O)CCCCCCCCCCCCCCCCC(=O)*; γGlu = O=C(O)[C@H](CCC(=O)[*:2])N[*:1]; AEEA = NCCOCCOCC(=O)O

Test: High-Molecular-Weight-Protein (HMWP) formation by SEC-UPLC
Type: physicochemical
Details: increase over two weeks at 37° C.
Experimental: In order to assess the propensity of CNP compounds to form covalent dimers or oligomers when formulated the High-Molecular-Weight-Protein content of CNP compound formulations at pH 4.0 and 6.5 were determined.
Procedure: The relative amount of covalent HMWP was assessed using SEC-UPLC. SEC-UPLC was conducted using a Waters UPLC Protein BEH SEC column, 125A, 4.6×150 mm, 1.7 μm, with isocratic elution (0.3 M NaCl, 10 mM NaH2PO4 and 5 mM H3PO4, 50% (v/v) isopropanol, pH 2.4) with a flow rate of 0.3 mL/min, a column temperature at 50° C. with UV-detection at 215 nm. The total area of peaks eluting prior to the monomeric main peak was termed HMWP and given on a percentage scale relative to the total peptide peak area.
(§1) Results: HMWP Formation Following 2-Weeks Quiescent Incubation at 37° C.: Samples at pH 4.0 were prepared as described in Example 5 and the amount of HMWP was determined as described above. Samples were incubated for two weeks at 37° C. and the amount of HMWP was determined again. The increase in HMWP over two weeks incubation at 37° C. are reported in Table 10 (in case the incubation period deviated from two weeks the increase in HMWP was normalized to two weeks assuming a constant formation rate).
as §1, with “Samples” for “Results: HMWP Formation Following 2-Weeks Quiescent Incubation at 37° C.: Samples”, “6.5” for “4.0”, “11” for “10”

SMILES	2-Week HMWP formation at pH 6.5 (%), % relative to total peak area	2-Week HMWP formation at pH 4.0 (%), % relative to total peak area
CC[C@H](C)[C@@H]1NC(=O)[C@H](CCCNC(=N)N)NC(=O)[C@H](CC(=O)O)NC(=O)[C@H](CC(C)C)NC(=O)[C@@H]2CCCN2C(=O)[C@H](CC(C)C)NC(=O)CNC(=O)[C@H](Cc2ccccc2)NC(=O)[C@@H](NC(=O)CNC(=O)[C@H](CCC(N)=O)NC(=O)[C@H](CO)NC(=O)[C@H](CC(C)C)NC(=O)CNC(=O)[C@H](CCCCN)NC(=O)[C@H](CCCCN)NC(=O)[C@H](CCC(N)=O)NC(=O)[C@H](C)NC(=O)CNC(=O)[C@H](CCCCN)NC(=O)[C@H](Cc2ccc(O)cc2)NC(=O)[C@H](CCCCN)NC(=O)[C@H](Cc2c[nH]cn2)NC(=O)[C@H](C)NC(=O)[C@H](CCC(N)=O)NC(=O)[C@@H]2CCCN2C(=O)[C@H](Cc2c[nH]cn2)NC(=O)[C@H](CCC(=O)O)NC(=O)[C@H](CCC(N)=O)NC(=O)COCCOCCNC(=O)COCCOCCNC(=O)CC[C@H](NC(=O)CC[C@H](NC(=O)CC[C@H](NC(=O)CCCCCCCCCCCCCCCCC(=O)O)C(=O)O)C(=O)O)C(=O)O)CSSC[C@@H](C(=O)O)NC(=O)CNC(=O)[C@H](CC(C)C)NC(=O)CNC(=O)[C@H](CO)NC(=O)[C@H](CC(C)C)NC(=O)[C@H](CO)NC(=O)CNC1=O [compound 1382] ({C18 diacid-γGlu-γGlu-γGlu-AEEA-AEEA}-QEHPQAHKYKGAQKKGLSQGCFGLPLDRIGSLSGLGC-OH; disulfide 21-37)	0%	–
CC[C@H](C)[C@@H]1NC(=O)[C@H](CCCNC(=N)N)NC(=O)[C@H](CC(=O)O)NC(=O)[C@H](CC(C)C)NC(=O)[C@@H]2CCCN2C(=O)[C@H](CC(C)C)NC(=O)CNC(=O)[C@H](Cc2ccccc2)NC(=O)[C@@H](NC(=O)CNC(=O)[C@H](CCC(N)=O)NC(=O)[C@H](CO)NC(=O)[C@H](CC(C)C)NC(=O)CNC(=O)[C@H](CCCCN)NC(=O)[C@H](CCCCN)NC(=O)[C@H](CCC(N)=O)NC(=O)[C@H](C)NC(=O)CNC(=O)[C@H](CCCCN)NC(=O)[C@H](Cc2ccc(O)cc2)NC(=O)[C@H](CCCCN)NC(=O)[C@H](CCCNC(=N)N)NC(=O)[C@H](C)NC(=O)[C@H](CCC(N)=O)NC(=O)[C@@H]2CCCN2C(=O)[C@H](Cc2c[nH]cn2)NC(=O)[C@H](CCC(=O)O)NC(=O)[C@H](CCC(N)=O)NC(=O)COCCOCCNC(=O)COCCOCCNC(=O)CC[C@H](NC(=O)CC[C@H](NC(=O)CC[C@H](NC(=O)CC[C@H](NC(=O)CC[C@H](NC(=O)CC[C@H](NC(=O)CCCCCCCCCCCCCCCCC(=O)O)C(=O)O)C(=O)O)C(=O)O)C(=O)O)C(=O)O)C(=O)O)CSSC[C@@H](C(=O)O)NC(=O)CNC(=O)[C@H](CC(C)C)NC(=O)CNC(=O)[C@H](CO)NC(=O)[C@H](CC(C)C)NC(=O)[C@H](CO)NC(=O)CNC1=O [compound 1402] ({C18 diacid-γGlu-γGlu-γGlu-γGlu-γGlu-γGlu-AEEA-AEEA}-QEHPQARKYKGAQKKGLSQGCFGLPLDRIGSLSGLGC-OH; disulfide 21-37)	2.19%	–
CC[C@H](C)[C@@H]1NC(=O)[C@H](CCCNC(=N)N)NC(=O)[C@H](CC(=O)O)NC(=O)[C@H](CC(C)C)NC(=O)[C@@H]2CCCN2C(=O)[C@H](CC(C)C)NC(=O)CNC(=O)[C@H](Cc2ccccc2)NC(=O)[C@@H](NC(=O)CNC(=O)[C@H](CCC(N)=O)NC(=O)[C@H](CO)NC(=O)[C@H](CO)NC(=O)CNC(=O)[C@H](CCCCN)NC(=O)[C@H](CCCCN)NC(=O)[C@H](CCC(N)=O)NC(=O)[C@H](C)NC(=O)CNC(=O)[C@@H]2CCCN2C(=O)[C@H](C)NC(=O)[C@H](CCC(N)=O)NC(=O)CNC(=O)[C@@H]2CCCN2C(=O)[C@H](C)NC(=O)[C@H](CCC(N)=O)NC(=O)CNC(=O)[C@@H]2CCCN2C(=O)[C@H](C)NC(=O)[C@H](CCC(N)=O)NC(=O)CNC(=O)COCCOCCNC(=O)COCCOCCNC(=O)CC[C@H](NC(=O)CCCCCCCCCCCCCCCCC(=O)O)C(=O)O)CSSC[C@@H](C(=O)O)NC(=O)CNC(=O)[C@H](CC(C)C)NC(=O)CNC(=O)[C@H](CO)NC(=O)[C@H](CC(C)C)NC(=O)[C@H](CO)NC(=O)CNC1=O [compound 1457] ({C18 diacid-γGlu-AEEA-AEEA}-GQAPGQAPGQAPGAQKKGSSQGCFGLPLDRIGSLSGLGC-OH; disulfide 23-39)	3.24%	–
CC[C@H](C)[C@@H]1NC(=O)[C@H](CCCNC(=N)N)NC(=O)[C@H](CC(=O)O)NC(=O)[C@H](CC(C)C)NC(=O)[C@@H]2CCCN2C(=O)[C@H](CC(C)C)NC(=O)CNC(=O)[C@H](Cc2ccccc2)NC(=O)[C@@H](NC(=O)CNC(=O)[C@H](CO)NC(=O)[C@H](CO)NC(=O)[C@@H](NC(=O)CNC(=O)[C@H](CCCCN)NC(=O)[C@H](CCCCN)NC(=O)[C@H](CCC(N)=O)NC(=O)[C@H](C)NC(=O)CNC(=O)[C@H](Cc2c[nH]cn2)NC(=O)[C@H](Cc2ccc(O)cc2)NC(=O)[C@H](CCCCN)NC(=O)[C@H](CCCNC(=N)N)NC(=O)[C@H](C)NC(=O)COCCOCCNC(=O)COCCOCCNC(=O)CC[C@H](NC(=O)CC[C@H](NC(=O)CC[C@H](NC(=O)CCCCCCCCCCCCCCCCC(=O)O)C(=O)O)C(=O)O)C(=O)O)C(C)C)CSSC[C@@H](C(=O)O)NC(=O)CNC(=O)[C@H](CC(C)C)NC(=O)CNC(=O)[C@H](CO)NC(=O)[C@H](CC(C)C)NC(=O)[C@H](CO)NC(=O)CNC1=O [compound 1422] ({C18 diacid-γGlu-γGlu-γGlu-AEEA-AEEA}-ARKYHGAQKKGVSSGCFGLPLDRIGSLSGLGC-OH; disulfide 16-32)	–	36%
CC[C@H](C)[C@@H]1NC(=O)[C@H](CCCNC(=N)N)NC(=O)[C@H](CC(=O)O)NC(=O)[C@H](CC(C)C)NC(=O)[C@@H]2CCCN2C(=O)[C@H](CC(C)C)NC(=O)CNC(=O)[C@H](Cc2ccccc2)NC(=O)[C@@H](NC(=O)CNC(=O)[C@H](CCC(N)=O)NC(=O)[C@H](CO)NC(=O)[C@H](CC(C)C)NC(=O)CNC(=O)[C@H](CCCCN)NC(=O)[C@H](CCCCN)NC(=O)[C@H](CCC(N)=O)NC(=O)[C@H](C)NC(=O)CNC(=O)[C@H](CCCCN)NC(=O)[C@H](Cc2ccc(O)cc2)NC(=O)COCCOCCNC(=O)COCCOCCNC(=O)COCCOCCNC(=O)COCCOCCNC(=O)CC[C@H](NC(=O)CC[C@H](NC(=O)CCCCCCCCCCCCCCCCC(=O)O)C(=O)O)C(=O)O)CSSC[C@@H](C(=O)O)NC(=O)CNC(=O)[C@H](CC(C)C)NC(=O)CNC(=O)[C@H](CO)NC(=O)[C@H](CC(C)C)NC(=O)[C@H](CO)NC(=O)CNC1=O [compound 1478] ({C18 diacid-γGlu-γGlu-AEEA-AEEA-AEEA-AEEA}-YKGAQKKGLSQGCFGLPLDRIGSLSGLGC-OH; disulfide 13-29; C-terminus assumed)	–	1.98%
